Test results reported in patent US7371734B2, “Oligonucleotide compositions and their use for the modulation of immune responses” (Bioniche Life Sciences Inc., priority 2002, dated 2008).
Marks after values point to notes of the source that are not given here.

What was measured:
Format in all cases: cell-based
Human dendritic cells [1] = assay: Induction of IL-1beta production by DC (ELISA); details: 100 μg, 48 hours
Experimental: (§1) Human dendritic cells were obtained from Clonetics (San Diego, Calif., USA) and were cultured in the medium recommended by Clonetics. DC were obtained from three different individuals (see Table 1). Major histocompatability typing was performed on each of these individuals and several of the HLA (human leukocyte antigens) types are shown.
DC were seeded in 1.0 ml at 1.0×10^5 cells/ml in 6-well flat-bottomed tissue culture plates for 48 hours with 100 μg of 6 base N1A, N1B, N2A, N2B, N3A, N3B, N4A, N4B, N5A, N5B, N6A, N6B, N7A or N7B polynucleotides. Production of IL-1beta was determined in 100 μl of culture supernatant using a commercial ELISA (BioSource, Camarillo, Calif., USA) after 48 hours of incubation. Results are expressed as the “fold” (x) increase in IL-1beta production by treated DC compared to control cells.

Human dendritic cells [2] = assay: MHC-II levels at the DC cell surface (flow cytometry); details: DC from individual B; 100 μg, 48 hours
Experimental: as §1
DC from individual B were seeded in 1.0 ml at 1.0×10^5 cells/ml in 6-well flat-bottomed tissue culture plates for 48 hours with 100 μg of 6 base N1A, N1B, N2A, N2B, N3A, N3B, N5A, N5B, N6A, N6B, N7A or N7B polynucleotides. The level of MHC II at the cell surface was determined after 48 hours of incubation by flow cytometry using a FITC-conjugated monoclonal antibody directed to MHC II (Serotec) and analyzed by CELLQuest Pro. Results are expressed as the percentage of MHC II^hi DC following treatment.

Human dendritic cells [3] = assay: CD40 levels at the DC cell surface (flow cytometry); details: 100 μg, 48 hours
Experimental: as §1
DC from individuals B and C were seeded in 1.0 ml at 1.0×10^5 cells/ml in 6-well flat-bottomed tissue culture plates for 48 hours with 100 μg of 6 base N1A, N1B, N2A, N2B, N3A, N3B, N4A, N4B, N5A, N5B, N6A, N6B, N7A or N7B polynucleotides. The level of CD40 at the cell surface was determined after 48 hours of incubation by flow cytometry (FACSCalibur system) using a FITC-conjugated monoclonal antibody directed to CD40 and analyzed by CELLQuest Pro (all from Becton Dickinson). Results are expressed as the percentage of CD40^hi DC following treatment. The term “CD40^hi” refers to a population of cells identified by flow cytometry as having higher than baseline expression of CD40.

Human dendritic cells [4] = assay: Increase in cell size and granularity of DC (flow cytometry); details: 100 μg polynucleotide, 48 hours
Experimental: as §1
DC were seeded in 1.0 ml at 1.0×10^5 cells/ml in 6-well flat-bottomed tissue culture plates for 48 hours with 100 μg of 6 base N1A, N1B, N2A, N2B, N3A, N3B, N4A, N4B, N5A, N5B, N6A, N6B, N7A or N7B polynucleotides. Cell size (FCS: forward side scatter) and granularity (S SC: side light scatter) were determined by flow cytometry using a FACSCalibur and analyzed using the CELLQuest Pro software (both from Becton-Dickinson, San Diego, Calif., USA). Percentage of DC showing a FCS>500 units and a SSC>400 units have been determined after treatment with 3-OH, 5-OH polynucleotides for DC isolated from three different individuals.

Human dendritic cells [5] = assay: Induction of IFN-gamma production by DC (ELISA); details: 100 μg, 48 hours
Experimental: as §1
DC were seeded in 1.0 ml at 1.0×10^5 cells/ml in 6-well flat-bottomed tissue culture plates for 48 hours with 100 μg of6 base N1A, N1B, N2A, N2B, N3A, N3B, N4A, N4B, N5A, N5B, N6A, N6B, N7A or N7B polynucleotides. Production of IFN-gamma was determined in 100 μl of culture supernatant using a commercial ELISA (BioSource) after 48 hours of incubation. Results are expressed as the “fold” (x) increase in IFN-gamma production by treated DC compared to control cells.

Human dendritic cells [6] = assay: CD80 levels at the DC cell surface (flow cytometry); details: 100 μg, 48 hours
Experimental: as §1
DC from individuals B and C were seeded in 1.0 ml at 1.0×10^5 cells/ml in 6-well flat-bottomed tissue culture plates for 48 hours with 100 μg of 6 base N1A, N1B, N2A, N2B, N3A, N3B, N4A, N4B, N5A, N5B, N6A, N6B, N7A or N7B polynucleotides. The level of CD80 at the cell surface was determined after 48 hours of incubation by flow cytometry using a FITC-conjugated monoclonal antibody directed to CD80 (Serotec, Oxford, U.K.) and analyzed by CELLQuest. Results are expressed as the percentage of CD80^hi DC following treatment.

Human dendritic cells [7] = assay: Induction of IL-12 production by DC (ELISA); details: 100 μg, 48 hours
Experimental: as §1
DC were seeded in 1.0 ml at 1.0×10^5 cells/ml in 6-well flat-bottomed tissue culture plates for 48 hours with 100 μg of 6 base N1A, N1B, N2A, N2B, N3A, N3B, N4A, N4B, N5A, N5B, N6A, N6B, N7A or N7B polynucleotides. Production of IL-12 was determined in 100 μl of culture supernatant using a commercial ELISA (BioSource) after 48 hours of incubation. Results are expressed as the “fold” (x) increase in IL-12 production by treated DC compared to control cells.

Human dendritic cells [8] = assay: Induction of IL-12 by sequences plus GM-CSF (ELISA); details: 100 μg, 48 hours
Experimental: as §1
DC from the individual B were seeded in 1.0 ml at 1.0×10^5 cells/ml in 6-well flat-bottomed tissue culture plates for 48 hours with 500 units of human recombinant GM-CSF (Clonetics) and 100 μg of 6 base polynucleotide N1A or polynucleotide N7A. Production of IL-12 was determined in 100 μl of culture supernatant using a commercial ELISA (BioSource) after 48 hours of incubation. Results are expressed as the “fold” (x) increase in IL-12 production by treated DC compared to control cells in absence or presence of recombinant GM-CSF.

Human dendritic cells [9] = assay: CD86 levels at the DC cell surface (flow cytometry); details: 100 μg, 48 hours
Experimental: as §1
DC from individuals B and C were seeded in 1.0 ml at 1.0×10^5 cells/ml in 6-well flat-bottomed tissue culture plates for 48 hours with 100 μg of 6 base N1A, N1B, N2A, N2B, N3A, N3B, N4A, N4B, N5A, N5B, N6A, N6B, N7A or N7B polynucleotides. The level of CD86 at the cell surface was determined after 48 hours of incubation by flow cytometry using a PE-conjugated monoclonal antibody directed to CD86 (Serotec) and analyzed by CELLQuest Pro. Results are expressed as the percentage of CD86^hi DC following treatment.

## 5′GTGTGT3′ [N1A]
Human dendritic cells [1]; DC isolated from individual A
  IL-1beta production by DC (fold increase compared to untreated DC): 1.0 fold
Human dendritic cells [1]; DC isolated from individual B
  IL-1beta production by DC (fold increase compared to untreated DC): 1.2 fold
Human dendritic cells [1]; DC isolated from individual C
  IL-1beta production by DC (fold increase compared to untreated DC): 1.0 fold
Human dendritic cells [2]
  The percentage of MHC-II^hi DC following treatment: 32** %
Human dendritic cells [3]; DC from individual B
  The percentage of CD40^hi DC following treatment: 21%
Human dendritic cells [3]; DC from individual C
  The percentage of CD40^hi DC following treatment: 24** %
Human dendritic cells [4]; DC isolated from individual A
  Percentage of DC showing a FCS > 500 units and a SSC > 400 units: 6%
Human dendritic cells [4]; DC isolated from individual B
  Percentage of DC showing a FCS > 500 units and a SSC > 400 units: 9%
Human dendritic cells [4]; DC isolated from individual C
  Percentage of DC showing a FCS > 500 units and a SSC > 400 units: 18%
Human dendritic cells [5]; DC isolated from individual A
  IFN-gamma production by DC (fold increase compared to untreated DC): 0.8 fold
Human dendritic cells [5]; DC isolated from individual B
  IFN-gamma production by DC (fold increase compared to untreated DC): 1.0 fold
Human dendritic cells [5]; DC isolated from individual C
  IFN-gamma production by DC (fold increase compared to untreated DC): 1.0 fold
Human dendritic cells [6]; DC from individual B
  The percentage of CD80^hi DC following treatment: 45** %
Human dendritic cells [6]; DC from individual C
  The percentage of CD80^hi DC following treatment: 41** %
Human dendritic cells [7]; DC isolated from individual A
  IL-12 production by DC (fold increase compared to untreated DC): 15.9 fold
Human dendritic cells [7]; DC isolated from individual B
  IL-12 production by DC (fold increase compared to untreated DC): 17.8 fold
Human dendritic cells [7]; DC isolated from individual C
  IL-12 production by DC (fold increase compared to untreated DC): 2.1 fold
Human dendritic cells [8]; +GM-CSF (500 units human recombinant)
  IL-12 production by DC from the individual B (fold increase compared to untreated DC): 15.3 fold
Human dendritic cells [8]; w/o GM-CSF
  IL-12 production by DC from the individual B (fold increase compared to untreated DC): 14.7 fold
Human dendritic cells [9]; DC from individual B
  The percentage of CD86^hi DC following treatment: 10%
Human dendritic cells [9]; DC from individual C
  The percentage of CD86^hi DC following treatment: 14%
